Patent US20260102472A1, “SEMAGLUTIDE IN MEDICAL THERAPY” (Novo Nordisk A/S, priority 2023, published 2026)

Tests used:
[1] = system: hospitalisation for heart failure; details: 0.5 mg or 1.0 mg subcutaneous once weekly, compared to placebo; cited from earlier work
[2] = system: human subjects with obesity-related heart failure with preserved ejection fraction; experiment: Randomised, double-blind, placebo-controlled clinical trial of semaglutide in obesity-related HFpEF (Example 1); assay type: in vivo; details: for Time to first HF event from randomisation leading to either hospitalisation or an urgent visit, Hazard ratio: Semaglutide 2.4 mg/placebo; for Observed KCCQ-CSS mean change from baseline: 2.4 mg once weekly subcutaneously
Source text: The Kansas City Cardiomyopathy Questionnaire (KCCQ) is a disease-specific health status instrument composed of 23 items that quantify the domains of physical limitation, symptoms, self-efficacy, social limitation, and health-related quality of life limitation from heart failure (available via cvoutcomes.org). The questions of the KCCQ are as published in the appendix of Green et al., JACC 2000; 35 (5): 1245-55:
The Kansas City Cardiomyopathy Questionnaire clinical summary score (KCCQ-CSS) is used for interpretation of the KCCQ and scores range from 0 to 100 where higher scores indicate better function. KCCQ-CSS is calculated as the mean of the available summary scores Physical Limitation Score and Total Symptom Score from the KCCQ. […] “Total Symptom Score” is calculated as the mean of the available summary scores Symptom Frequency Score and Symptom Burden Score. “Symptom Frequency Score” is calculated, if answer to at least two of Questions 3, 5, 7 and 9 are not missing, as 100*(mean of S3, S5, S7 and S9 answered), where S3=[(Question 3)−1]/4, S5=[(Question 5)−1]/6, S7=[(Question 7)−1]/6, and S9=[(Question 9)−1]/4; answers to Question 3 are scored as follows: Every morning=1, 3 or more times a week but not every day=2, 1-2 times a week=3, Less than once a week=4, Never over the past 2 weeks=5; answers to Questions 5 and 7 are scored as follows: All of the time=1, Several times a day=2, At least once a day=3, 3 or more times a week but not every day=4, 1-2 times a week=5, Less than once a week=6, or Never over the past 2 weeks=7; and answers to Question 9 are scored as follows: Every night=1, 3 or more times a week but not every day=2, 1-2 times a week=3, Less than once a week=4, or Never over the past 2 weeks=5. “Symptom Burden Score” is calculated, if answer to at least one of Questions 4, 6 and 8 is not missing, as 100*[(mean of Questions 4, 6 and 8 answered)−1]/4 where answers are scored as follows: Extremely bothersome=1, Quite a bit bothersome=2, Moderately bothersome=3, Slightly bothersome=4, Not at all bothersome=5, or I've had no swelling/fatigue/shortness of breath=5. The term “mean of questions answered” as used herein refers to that for a scale with n in questions where the subject must answer m to score the scale, but the subject answers only n-i, where n-i>=m, then the mean of those questions is calculated as (sum of answers to those n-i questions)/(n-i).
The six minute walk test (6MWT) is a determination of the distance a subject is able to walk over a period of six minutes where the subject traverses, at its own pace and resting as needed, back and forth along a marked walkway of 20 meters with the goal of walking as far as possible without running. The distance obtained from 6MWT is referred to as the six minute walk distance (6MWD). The 6MWT is a direct and timed measure of walking ability, which is technically simple and reproducible.
Heart failure exists in different degrees of severity. The most commonly used classification system of heart failure is the New York Heart Association Functional Classification (also referred to as “NYHA”). NYHA categorises subjects in one of four classes I-IV (Table A), based on their degree of limitation during physical activity, and optionally an additional subgroup A-D based on objective assessments, for further details see The Criteria Committee of the New York Heart Association. Nomenclature and Criteria for Diagnosis of Diseases of the Heart and Great Vessels. 9th ed. Boston, Mass: Little, Brown & Co; 1994:253-256.
A randomised, double-blind, international multicentre, placebo-controlled clinical trial with semaglutide was carried out with 529 human subjects with obesity-related heart failure with preserved ejection fraction. Key inclusion criteria were body mass index (BMI) of at least 30 kg/m^2, NYHA Class II-IV, and LVEF of at least 45% at time of screening for the clinical trial. […]

[3] = pair-wise comparisons vs. placebo, 2.4 mg
[4] = week 52, 2.4 mg once weekly vs. placebo
[5] = week 52, 2.4 mg once weekly vs. placebo, listed as semaglutide
[6] = week 52, 2.4 mg once weekly, ANCOVA estimate

For “N-epsilon26-[2-(2-{2-[2-(2-{2-[(S)-4-Carboxy-4-(17-carboxyheptadecanoyl-amino) butyrylamino]ethoxy}ethoxy) acetylamino]ethoxy}ethoxy) acetyl] [Aib8,Arg34] GLP-1-(7-37) [Semaglutide]”, the “Hospitalisation for heart failure, hazard ratio (95% confidence interval)” value [1] is listed as 1.11 (0.77−1.61), the Inflammation ([2]; HFpEF and obesity, no data given) is listed as “reduced inflammation” and the “Time to first HF event from randomisation leading to either hospitalisation or an urgent visit, Hazard ratio” value [2] is listed as 0.08. The “Time to first HF event from randomisation leading to either hospitalisation or an urgent visit, Hazard ratio” value ([2]; listed as semaglutide) was “risk of experiencing a heart failure event was less”, the “Patients improved or with no change in NYHA class compared with placebo” value ([2]; baseline to 52 weeks) was “more patients treated with semaglutide improved or observed no change in NYHA class” and the “More wins on semaglutide as compared to placebo” value ([2]; hierarchical composite endpoint) was 72%. The “Hierarchical composite endpoint, Loss: All-cause death” value [2, 3] was 1.1%, the “Hierarchical composite endpoint, Loss: Change in 6MWD ≥30 meters difference” value [2, 3] was 3.7% and the “Hierarchical composite endpoint, Loss: Change in KCCQ-CSS ≥5 points difference” value [2, 3] was 7.0%. For the same substance, the “Hierarchical composite endpoint, Loss: Change in KCCQ-CSS ≥10 points difference” value [2, 3] was 5.6%, the “Hierarchical composite endpoint, Loss: Change in KCCQ-CSS ≥15 points difference” value [2, 3] was 17.5% and the “Hierarchical composite endpoint, Loss: Number of HF events” value [2, 3] was 0.0%. The “Hierarchical composite endpoint, Loss: Time-to-first HF event” value [2, 3] was 0.0%, the “Hierarchical composite endpoint, Loss: Total” value [2, 3] was 34.9% and the “Hierarchical composite endpoint, Proportion of ties” value [2, 3] was “Proportion of ties: 5.1%”. The “Hierarchical composite endpoint, Wins: All-cause death” value [2, 3] was 1.5%, the “Hierarchical composite endpoint, Wins: Change in 6MWD ≥30 meters difference” value [2, 3] was 6.3% and the “Hierarchical composite endpoint, Wins: Change in KCCQ-CSS ≥5 points difference” value [2, 3] was 8.2%. The “Hierarchical composite endpoint, Wins: Change in KCCQ-CSS ≥10 points difference” value [2, 3] was 7.2%, the “Hierarchical composite endpoint, Wins: Change in KCCQ-CSS ≥15 points difference” value [2, 3] was 33.7% and the “Hierarchical composite endpoint, Wins: Number of HF events” value [2, 3] was 3.3%. The “Hierarchical composite endpoint, Wins: Time-to-first HF event” value [2, 3] was 0.0%, the “Hierarchical composite endpoint, Wins: Total” value [2, 3] was 60.1% and the “Observed body weight (%) mean change from baseline” value ([2]; week 0, 2.4 mg once weekly) was 0%. The “Observed six minutes walk distance mean change from baseline” value ([2]; week 0, 2.4 mg once weekly) was 0 meters, the “Observed KCCQ-CSS mean change from baseline” value (shortened to “Observed KCCQ-CSS mean change”) ([2]; week 0) was 0 and the “Observed body weight (%) mean change from baseline” value ([2]; week 4, dose escalation to 2.4 mg once weekly) was −2.1%. For the same substance, the “Observed body weight (%) mean change from baseline” value ([2]; week 8, dose escalation to 2.4 mg once weekly) was −3.2%, the “Observed body weight (%) mean change from baseline” value ([2]; week 12, dose escalation to 2.4 mg once weekly) was −5.0% and the “Observed body weight (%) mean change from baseline” value ([2]; week 16, dose escalation to 2.4 mg once weekly) was −6.6%. For the same substance, the “Observed body weight (%) mean change from baseline” value ([2]; week 20, 2.4 mg once weekly) was −7.8%, the “Observed six minutes walk distance mean change from baseline” value ([2]; week 20, 2.4 mg once weekly) was 14.3 meters and the “Observed KCCQ-CSS mean change” value ([2]; week 20) was 11.0. The “Observed body weight (%) mean change from baseline” value ([2]; week 28, 2.4 mg once weekly) was −10.2%, the “Observed body weight (%) mean change from baseline” value ([2]; week 36, 2.4 mg once weekly) was −12.1% and the “Observed KCCQ-CSS mean change” value ([2]; week 36) was 15.0. The “Observed body weight (%) mean change from baseline” value ([2]; week 44, 2.4 mg once weekly) was −12.9%, the “NYHA class from baseline to week 52: Improvement” value ([2]; week 52, 2.4 mg once weekly) was 36.4% and the “NYHA class from baseline to week 52: No change” value ([2]; week 52, 2.4 mg once weekly) was 61.7%. The “NYHA class from baseline to week 52: Worsening” value ([2]; week 52, 2.4 mg once weekly) was 2.0%, the “Observed body weight (%) mean change from baseline” value ([2]; week 52, 2.4 mg once weekly) was −13.9% and the “Observed proportion improving ≥5 points from baseline in KCCQ-CSS” value ([2]; week 52, 2.4 mg once weekly) was 75%. The “Observed proportion improving ≥10 points from baseline in KCCQ-CSS” value ([2]; week 52, 2.4 mg once weekly) was 63%, the “Observed six minutes walk distance mean change from baseline” value ([2]; week 52, 2.4 mg once weekly) was 23.5 meters and the “Observed KCCQ-CSS mean change” value ([2]; week 52) was 16.8. For the same substance, the “Body weight (%) change from baseline to week 52, Treatment difference vs. placebo” value [2, 4] was −10.7%, the “Improvement of ≥5 points in KCCQ-CSS, Treatment Odds ratio vs. placebo” value [2, 4] was 1.88 and the “Improvement of ≥10 points in KCCQ-CSS, Treatment Odds ratio vs. placebo” value [2, 4] was 2.10. The “KCCQ-CSS change from baseline to week 52, Treatment difference vs. placebo” value [2, 4] was 7.8 score, the “Six minutes walk distance change from baseline to week 52, Treatment difference vs. placebo” value [2, 4] was 20.3 meters and the “Body weight (%) change from baseline to week 52, Treatment difference vs. placebo” value [2, 5] was “significantly larger body weight loss”. The “KCCQ-CSS change from baseline to week 52, Treatment difference vs. placebo” value [2, 5] was “significantly larger improvement in KCCQ-CSS”, the “Six minutes walk distance change from baseline to week 52, Treatment difference vs. placebo” value [2, 5] was “significantly larger improvement in six minutes walk distance” and the “Body weight (%) change from baseline to week 52, Estimate” value [2, 6] was −13.3%. For the same substance, the “KCCQ-CSS change from baseline to week 52, Estimate” value [2, 6] was 16.6 score and the “Six minutes walk distance change from baseline to week 52, Estimate” value [2, 6] was 21.5 meters.
